Experimental data published in patent publication US20240299401A1, “NOVEL REDOX-BASED THERAPEUTIC APPROACH FOR TREATMENT OF CANCER” (THE PENN STATE RESEARCH FOUNDATION, priority 2020, published 2024).
“Also recorded” adds a separate entry of the source. Read-outs that look alike come from different tables or passages of the source.

Legend:
A549 = assay: WST-1 cytotoxicity, A549; type: cell-based, human; details: Homo sapiens
Protocol: (§1) Two different cytotoxicity/proliferation kit was used in this study i.e., WST-1 proliferation assay kit (Roche, Indianapolis, IN, USA; Cat #28620000) and Cell-titer Glo-luminescent cell viability assay (Promega, WI, USA; Cat #0000348721). Majority of the cell proliferation/cytotoxicity experiments were performed with WST-1 assay. Briefly, cells were seeded at the indicated density for 24 h in 96 well plate, media was replaced, and subsequently treated with the test compounds at different doses. […] Cell titer Glo-assay was additionally performed in certain cases to validate the results from WST-1 assay as outlined above following manufacturer's instructions and luminescence was measured using a FLx100 Luminometer (CLARIOSTAR®, Ortenbery, Germany). […] Other proliferation/cytotoxicity assays were also carried out i.e., Quant™-iT PicoGreen ds DNA assay kit (Thermo Scientific, Rockwood, TN, USA, P7589) following manufacturer's instructions, Trypan blue (Sigma, Ayrshire, UK, T8154) and acid phosphatase assay for validation of cytotoxicity/proliferation data from other assays.

H661 = assay: WST-1 cytotoxicity, H661; type: cell-based, human; details: Homo sapiens, NCI-H661, 24 h
Protocol: as §1

H1299 = assay: WST-1 cytotoxicity, H1299; type: cell-based, human; details: Homo sapiens, NCI-H1299
Protocol: as §1

NB4 = assay: WST-1 cytotoxicity, NB4; type: cell-based, human; details: Homo sapiens, NB-4
Protocol: as §1

HL60 = assay: WST-1 cytotoxicity and synergy analysis, HL60; type: cell-based, human; details: Homo sapiens, HL-60
Protocol: as §1

MCF-7 = assay: WST-1 cytotoxicity, MCF-7; type: cell-based, human; details: Homo sapiens
Protocol: as §1

[1] = system: 23 different human cell lines of multiple cancer origins; assay: Cytotoxicity across the cancer cell line panel (summary statements); type: cell-based; details: 5 μM; cancer cell lines of Table 2
Protocol: as §1

H1299 cells = assay: Cellular total selenium uptake by ICP-MS; type: cell-based, human; details: 6 h
Protocol: H1299 cells were treated with the indicated concentrations of different selenium compounds either alone or in combinations for 6 h. At the end of the treatment, cells were washed 3-times with cold PBS and collected. Cell pellets were digested and the total selenium concentration was measured using ICP-MS. […] Increased selenium delivery to the cells by diphenyl diselenide warrants increased cytotoxicity in cancer cells, as outlined before.

[2] = system: extracellular reduced thiols; assay: Extracellular thiols measurement (DTDP method); type: cell-based, human
Protocol: Cell culture media was collected at specified time points after incubation with the respective compounds as described in the respective figure legends and extracellular total thiols were measured using the DTDP method 19. The protocol was adjusted to 96-well plate format. […] Absorbance was measured at 324 nm in a spectrophotometer (PowerWave HT, BioTek, VT, USA). The assay mixture with fresh media was used as a blank.

[3] = system: GSH and CySH in HL60 cells; assay: Intracellular and extracellular thiols by HPLC; type: cell-based, human; details: listed as DPDS
Protocol: HPLC was performed as described by Luo et al. 21. Samples and standards were derivatized using monobromobimane (Calbiochem, La Jolla, CA) in sodium N-ethylmorpholine. Aliquots of the derivatized samples were filtered using a 0.22 μm Millipore filter. Glutathione (GSH), cysteine (CySH) and g-glutamylcysteine (7-GC) concentrations were then analyzed using high-performance liquid chromatography (HPLC). Both the total and reduced forms were measured. The HPLC separation, of the thiol-bimane adducts, was achieved on a column (4.5×150 mm) packed with 3-μm octadecyl-silica reversed-phase resin (Supelco, Inc., Bellefonte, PA) followed by fluorescent detection at excitation 394 nm and emission 480 nm (Millipore Co., Milford, MA). The system consisted of a Waters 625 LC pump system, a Waters 470 scanning fluorescence detector, and a Waters 717 Ultra WISP sample processor (Millipore, Milford, MA). Elution solvent A was 7.0% aqueous acetonitrile containing 0.25% acetic acid and perchloric acid; the final pH was adjusted to 3.76 with sodium hydroxide. Elution solvent B was 75% acetonitrile. The flow rate was 1.0 ml/min. The derivatives of GSH, CySH and 7-GC were then quantified based on peak areas and compared with standards. The CV for this method is 2.6%.

HMOX and NQO1 = assay: mRNA expression of NFE2L2 target genes; type: cell-based, human; details: early time point
[4] = system: cystathionine gamma lyase; assay: RNA-sequencing; type: cell-based; details: RNA-sequencing data
[5] = system: Primary Human hepatocytes
SLC7A11 = SLC7A11 mRNA expression (qRT-PCR); details: HL60 and H1299 cells; listed as DPDS
[6] = system: splenocytes comprising normal and leukemic cells; assay: Frequency of normal and leukemic splenocytes by flow cytometry (CD45.1); details: 50.0 μM; 67 h
Protocol: Primary mice leukemic cells (CD45.1 background) bearing human MLL-AF9 oncogene were transplanted into healthy secondary mice (CD45.2 background). Following leukemia development in these mice, spleens were collected following euthanasia. Splenocytes, comprising both normal and leukemic cells, were isolated and cultured ex vivo in 24 well plates (1.5×10^6 cells/0.5 ml/well) for 12 h prior to exposing with the indicated compounds for another 67 h. At the end of the exposure, relative frequency of normal (CD45.1 negative) and leukemic (CD45.1 positive) cells were determined using flow cytometry.

U1906E = assay: WST-1 cytotoxicity, U1906E; type: cell-based; details: Homo sapiens; U1906E; alone; 24 h; read-out: Calculated IC50 values
Protocol: as §1

U1906L = assay: WST-1 cytotoxicity, U1906L; type: cell-based; details: Homo sapiens; U1906L; alone; 24 h; read-out: Calculated IC50 values
Protocol: as §1

THP-1 = assay: WST-1 cytotoxicity, THP-1; type: cell-based; details: Homo sapiens; THP-1; alone; 24 h; read-out: Calculated IC50 values
Protocol: as §1

AML193 = assay: WST-1 cytotoxicity, AML193; type: cell-based; details: Homo sapiens; AML193; alone; 24 h; read-out: Calculated IC50 values
Protocol: as §1

HepG2 = assay: WST-1 cytotoxicity, HepG2; type: cell-based; details: Homo sapiens; HepG2; alone; 24 h; read-out: Calculated IC50 values
Hep3B = assay: WST-1 cytotoxicity, Hep3B; type: cell-based; details: Homo sapiens, alone, 24 h, read-out: Calculated IC50 values
Protocol: as §1

HUH7 = assay: WST-1 cytotoxicity, HUH7; type: cell-based; details: Homo sapiens, Huh-7; HUH7; alone; 24 h; read-out: Calculated IC50 values
Protocol: as §1

SHSY5-SY = assay: WST-1 cytotoxicity, SHSY5-SY; type: cell-based; details: Homo sapiens; SHSY5-SY; alone; 24 h; read-out: Calculated IC50 values
Protocol: as §1

SNB-19 = assay: WST-1 cytotoxicity, SNB-19; type: cell-based; details: Homo sapiens; SNB-19; alone; 24 h; read-out: Calculated IC50 values
Protocol: as §1

8-MGBA = assay: WST-1 cytotoxicity, 8-MGBA; type: cell-based; details: Homo sapiens, 8-MG-BA; 8-MGBA; alone; 24 h; read-out: Calculated IC50 values
Protocol: as §1

LS174T = assay: WST-1 cytotoxicity, LS174T; type: cell-based; details: Homo sapiens, alone, 24 h, read-out: Calculated IC50 values
Protocol: as §1

HeLa = assay: WST-1 cytotoxicity, HeLa; type: cell-based; details: Homo sapiens, alone, 24 h, read-out: Calculated IC50 values
Protocol: as §1

PANC-1 = assay: WST-1 cytotoxicity, PANC-1; type: cell-based; details: Homo sapiens; PANC-1; alone; 24 h; read-out: Calculated IC50 values
Protocol: as §1

A375 = assay: WST-1 cytotoxicity, A375; type: cell-based; details: Homo sapiens, A-375; A375; alone; 24 h; read-out: Calculated IC50 values
Protocol: as §1

IGROV1 = assay: WST-1 cytotoxicity, IGROV1; type: cell-based, human; details: IGROV1; alone; 24 h; dose up to 200 μM
Protocol: as §1

OV2008 = assay: WST-1 cytotoxicity, OV2008; type: cell-based; details: Homo sapiens; OV2008; alone; 24 h; read-out: Calculated IC50 values
Protocol: as §1

[7] = Toxicity in black mice (C57BL/6), 3 weeks; type: in vivo; details: sodium selenite or selenocystine 3 mg/kg, alone or with diphenyl diselenide 50 and 100 mg/kg
Protocol: Black mice (C57BJ/6) mice were treated perorally every second day with either vehicle (canola oil) or diphenyl diselenide at two different dose levels (50 and 100 mg/kg body weight) for 3 weeks. Final body weight and weight of the major organs were measured at necropsy.
Black mice (C57BJ/6) mice were treated with vehicle (PBS i.p. and canola oil p.o.), sodium selenite (3 mg/kg body weight), selenocystine (3 mg/kg body weight), or in combinations with two different doses of diphenyl diselenide (50 and 100 mg/kg body weight) for 3 weeks. Final body weight and weight of the major organs were measured at necropsy.

[8] = Reported oral administration of selenocystine in humans; type: in vivo, human; details: assuming 15% of 100 mg daily dose bioavailable, blood volume 5 L
[9] = orally, 50-200 mg/day for 49 days; human; cited from earlier work
[10] = system: Primary peripheral blood mononuclear cells; assay: WST-1 cytotoxicity, primary PBMCs; details: Homo sapiens, PBMC, 24 h, read-out: Calculated IC50 values
[11] = system: Primary Human hepatocytes; assay: WST-1 cytotoxicity, primary human hepatocytes; details: Hepatocyte, 24 h, read-out: Calculated IC50 values

c1ccc([Se][Se]c2ccccc2)cc1 [Diphenyl diselenide, diphenyl diselenide]
IC50 (A549; A549 (Lung), compound alone, 24 h, '>' = dose approximation, read-out: IC50 values): 91.1 µM | IC50 (H661; H661 (Lung), compound alone, '>' = dose approximation, read-out: IC50 values): 47.2 µM | IC50 (H1299; H1299 (Lung), compound alone, 24 h, '>' = dose approximation, read-out: IC50 values): 26.2 µM | IC50 (NB4; NB4 (Leukemia), compound alone, 24 h, '>' = dose approximation, read-out: IC50 values): 39.5 µM | IC50 (HL60; HL60 (Leukemia), compound alone, 24 h, '>' = dose approximation, read-out: IC50 values): 38.4 µM | IC50 (MCF-7; MCF7 (Breast), compound alone, 24 h, '>' = dose approximation, read-out: IC50 values): 42.7 µM | toxicity at the specified dose [1]: non-toxic | selenium uptake from sodium selenite or selenocystine (H1299 cells): dramatically increases selenium uptake | extracellular reduced thiols ([2]; HEK293 ATF4 reporter cells, 5.0 μM): no changes | extracellular reduced thiols ([2]; all the tested cell lines, H1299 and HL60): highly effective | intracellular GSH levels and extracellular CySH levels [3]: increased levels of intracellular GSH; also recorded: increases | expression of HMOX and NQO1 (HMOX and NQO1): significantly induced | expression of cystathionine gamma lyase [4]: increased | toxicity to normal human cells [5]: non-toxic | SLC7A11 expression (SLC7A11): Increased SLC7A11 expression; also recorded: potent inducer | frequency of either normal or leukemic cells [6]: marginal inhibitory effect

N[C@@H](C[Se][Se]C[C@H](N)C(=O)O)C(=O)O [Selenocystine, selenocystine]
IC50 (A549; A549, alone, 24 h, read-out: Calculated IC50 values): 8.7 µM | IC50 (A549; A549, alone, read-out: Calculated IC50 values of selenocystine): 8.7 µM | IC50 (H661; H661, alone, read-out: Calculated IC50 values): 55.7 µM | IC50 (H1299; H1299, alone, 24 h, read-out: Calculated IC50 values): 22.7 µM | IC50 (H1299; H1299, alone, read-out: Calculated IC50 values of selenocystine): 22.7 µM | IC50 (U1906E): 2.18 µM | IC50 (U1906L): 17.8 µM | IC50 (NB4; NB4, alone, 24 h, read-out: Calculated IC50 values): 44.1 µM | IC50 (NB4; NB4, alone, read-out: Calculated IC50 values of selenocystine): 44.1 µM | IC50 (HL60; HL60, alone, 24 h, read-out: Calculated IC50 values): 22.6 µM | IC50 (HL60; HL60, alone, read-out: Calculated IC50 values of selenocystine): 22.6 µM | IC50 (THP-1): 0.92 µM | IC50 (AML193): 47 µM | IC50 (HepG2): 12.4 µM | IC50 (Hep3B): 74.7 µM | IC50 (HUH7): 92.7 µM | IC50 (SHSY5-SY): 115 µM | IC50 (SNB-19): 78.7 µM | IC50 (8-MGBA): 49.7 µM | IC50 (LS174T): 3.88 µM | IC50 (HeLa): 5.78 µM | IC50 (MCF-7; MCF7, MCF-7, alone, 24 h, read-out: Calculated IC50 values): 34.9 µM | IC50 (MCF-7; MCF7, MCF-7, alone, read-out: Calculated IC50 values of selenocystine): 34.9 µM | IC50 (PANC-1): 18.5 µM | IC50 (A375): 8.6 µM | Calculated IC50 values (IGROV1): Non-toxic* | IC50 (OV2008): 6.98 µM | toxic effects (body and organ weight at necropsy) [7]: No demonstrated toxic effects could be observed | maximum plasma concentration (conservative estimation) [8]: 17.8 µM | drug-induced toxic effects [9]: no signs of drug-induced toxic effects were reported | IC50 [10]: 35.4 µM | IC50 [11]: 300 µM
